Read-outs that look alike come from different tables or passages of the source.
Assays:
[1] = target: T1, MAT II from human leukemic cells (Homo sapiens, UniProt P31153); conditions: cited from earlier work
T1 construct: MAT II from human leukemic cells expressing both the α and β subunits of the enzyme; host or cells: human leukemic cells

MAT I = conditions: cited from earlier work
MAT III = conditions: cited from earlier work
MAT II = test: MAT activity and kinetics in extracts of transfected Cos-1 cells; format: biochemical, African green monkey; conditions: for Km: Cos-1 cells expressing high levels of rα2, two kinetic forms, read-out: Km for L-Met, lower-Km kinetic form
Protocol: Transfection of Cos-1 cells with pTargeT™/MAT2A or pTargeT™/MAT2B was done using the cationic lipid reagent, Transfast™ (Promega). Preliminary experiments were carried out to optimize the transfection conditions. Typically, 1.5×10^6 cells were plated in 100 mm dish one day prior to transfection. For each plate, […] of vector DNA was applied in the ratio of 1:1 to Transfast™ in a protein-free medium for 2 h. For cells co-transfected with both α2 and β vectors, […] DNA from each was used. For each experiment, one untransfected plate served as a normal control, and a second plate was transfected with the pTargeT™ vector only (mock-transfected cells). After 48 h, cells were harvested by trypsinization with a solution containing 0.05% trypsin and 0.53 mM EDTA in Hank's balanced salt solution (HBSS, from Cellgro). Trypsinization was stopped by the addition of media supplemented with 10% FCS, cells were pelleted, washed three times in 1 ml HBSS, counted, then resuspended in 1× extraction buffer with protease inhibitors (50 mM Tris, pH 7.4, 100 mM NaCl, 5 mM MgCl2, 4 mM dithiothreitol, 0.1 IU/ml aprotinin, 0.5 mM PMSF and […] soybean trypsin inhibitor). Cells were lysed by three cycles of quick freezing and thawing, and the lysate was clarified by centrifugation at 15,000×g for 10 min at 4° C. If not immediately used; cell extracts were stored at −80° C. Protein assays were performed using the bicinchoninic acid reagent (Sigma) following the manufacturer instructions.
MAT activity in cell extracts was assayed as previously described (Kotb, M., and Kredich, N. M. (1985) J. Biol. Chem. 260, 3923-30). […] The concentration of L-Met was varied between […] using ^14C-L-Met (57.9 mCi/mmol) to a concentration of up to […], and supplementary with cold L-Met for higher concentrations.

C[S+](CC[C@H](N)C(=O)[O-])C[C@H]1O[C@@H](n2cnc3c(N)ncnc32)[C@H](O)[C@@H]1O (stereo partly shown) [AdoMet, S-adenosylmethionine, reference compound]
inhibition of enzyme activity ([1]; 25 μM AdoMet and 30 μM PPi): 3 fold | inhibition of enzyme activity ([1]; 25 μM AdoMet): ~2 fold | effect of AdoMet on enzyme (MAT I): inhibited | effect of AdoMet on enzyme (MAT III): activated

MAT I: hepatic MAT, tetramer of the α1 catalytic subunit
Km (MAT I; read-out: Km for L-Met): 3 to 14 µM

MAT III: hepatic MAT, dimer of the α1 catalytic subunit
Km (MAT III; read-out: Km for L-Met): 100 to 200 µM

recombinant human MAT II α2: recombinant catalytic α2 subunit of human MAT II, encoded by MAT2A, His-tagged
Km (MAT II; listed as rMAT II α2 protein): 15.1 µM | Km (MAT II; listed as rα2): 15 µM | effect on MAT (specific) activity (MAT II; expression in Cos-1 cells, result in words): markedly increased | increase in MAT activity (MAT II; transfected Cos-1 cell extracts compared to untransfected (or mock-transfected) cells): 3-4 fold

Reference: patent publication US20040259198A1, “Purified and isolated mat II beta subunit nucleic acids and polypeptides and therapeutic and screening methods using same” (priority 1999, published 2004)
